The source of these data is patent US20250134878A1, “COMBINATION OF CHEK1 INHIBITOR AND TOP1 INHIBITOR FOR TREATING COLORECTAL CANCER” (Genome Research Limited, priority 2022, published 2025).

Data set [1] concerns colon (n=45) cancer cell lines. Kind of data set: anchored 2x7 combination screen, viability by CellTiter-Glo after 72 h, synergy over Bliss. For orientation: ATP-based viability assays read luminescence as a measure of living cells.
Procedure: To screen efficiently, the inventors used a 2×7 concentration matrix, or “anchored” approach. The inventors screened each anchor compound at two optimised concentrations and a discontinuous 1,000-fold (7-point) dose-response curve of the library compound. Viability was read out after 72 h of drug treatment using CellTiter-Glo and drug responses for single agent and combination responses were fitted.
The synergy and activity rate also subset to MSS (n=30) and MSI (n=15), or KRAS mut (n=24) and KRAS wt (n=21) cell lines.
Activity in MSI (n=15) and MSS (n=30) cell lines was compared (FIG. 1a). KRAS mutant (n=24) cell lines were investigated (n=8, TP53 wild type; n=16 TP53 mutant) (FIG. 1b). […] Plotted are averaged combination responses. Box and whisker plots show the median and interquartile range. A two-sided Welch's t-test was performed (*=p≤0.05, **=p≤0.01, ***=p≤0.001, ****=p≤0.0001).
Viability was read out after 72 h of drug treatment using CellTiter-Glo and drug responses for single agent and combination responses were fitted.
In data set [2] the test system is SW620, SW837, SNU-81 or LS-1034 cells. Nature of the data set: CHEK specificity: camptothecin anchor plus CHEK inhibitor libraries, CellTiter-Glo viability after 96 h. In kind it is cell-based. The note with it: in combination with camptothecin (anchor, 0.025 µM), 4 cell lines. As to the method:
After 96 h of drug treatment viability was measured with CellTiter-Glo® 2.0 (CTG; Promega). Drug response curves were fitted and combination response metrics ΔEmax and ΔIC50 calculated by comparing the observed combination response with the expected (Bliss) combination response. The higher the ΔEmax and ΔIC50, the stronger the combination response. SW620, SW837, SNU-81 and LS-1034 are all MSS and KRAS-TP53 double mutant colon cancer cell lines.

A further data set addresses T1, CHEK1 (Homo sapiens, UniProt O14757).
T1 sequence (O14757 1-476): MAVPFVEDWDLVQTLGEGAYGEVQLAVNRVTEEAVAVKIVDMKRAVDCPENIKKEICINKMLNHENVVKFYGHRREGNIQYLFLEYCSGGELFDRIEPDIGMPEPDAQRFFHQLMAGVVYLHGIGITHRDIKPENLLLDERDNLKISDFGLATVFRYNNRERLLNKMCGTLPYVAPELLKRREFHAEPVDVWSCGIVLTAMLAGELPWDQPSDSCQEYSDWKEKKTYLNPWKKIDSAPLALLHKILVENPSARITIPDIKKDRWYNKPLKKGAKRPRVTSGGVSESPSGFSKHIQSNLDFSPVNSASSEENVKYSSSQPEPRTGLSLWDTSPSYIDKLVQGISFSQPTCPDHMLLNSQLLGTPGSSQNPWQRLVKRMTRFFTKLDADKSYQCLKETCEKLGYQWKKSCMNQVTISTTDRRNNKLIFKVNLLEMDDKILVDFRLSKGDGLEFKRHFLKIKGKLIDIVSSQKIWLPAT
Conditions: assay format not stated; read-out: IC50 (CHEK1 inhibitor); cited from earlier work.

For the next data set, the system named is LoVo cells. The note with it: cited from earlier work.
The subject of another data set is HT-29 cells. Conditions: cited from earlier work.
Data set [3] deals with colon cancer cell lines (CL-11, SNU-81 and SW837). Kind of data set: 7x7 matrix combination screen with SN-38, CellTiter-Glo 72 h, Bliss window and HSA window. In kind it is cell-based. The note with it: MSS and KRAS/TP53 double mutant cell lines. The procedure: Viability was measured after 72 h of drug treatment using CellTiter-Glo reagent. Single-agent and combination viability measurements were fitted per cell line and multiple parameters derived including single agent values and a range of synergy scores. […] The “Bliss window” was reported as the highest mean Bliss excess value measured across the 25 possible 3×3 submatrices, or ‘windows’, across the 7×7 dose matrix. […] The “HSA window” was reported as the highest mean HSA excess value measured across the 25 possible 3×3 submatrices, or ‘windows’, across the 7×7 dose matrix.

The next data set relates to SNU-81 cells. Nature of the data set: SN-38 dose response after siRNA transfection, viability (CTG). Format: cell-based. Conditions: for IC50: SN-38 added after 30 h, viability 72 h later. As to the method: (§1) For siRNA experiments, SW837 and SNU-81 cells (8,000 and 16,000 cells per well, respectively) were reverse transfected with siRNAs of a non-targeting pool as negative control (siNT; Dharmacon, D-001810-10-5), polo-like kinase 1 (PLK1) pool as positive control (Dharmacon, L-003290-00-0010), CHEK1 pool (Dharmacon, L-003255-00-0005) or four individual CHEK1 siRNAs (LQ-003255-00-0005), and CHEK2 pool (Dharmacon, L-003256-00-0005) using lipofectamine RNAiMax (Thermofisher). After 30 h, 0.025 µM or a dose range of 0.001-9 µM SN-38 or DMSO were added and viability was measured 72 h later with CTG. Signal was normalised to siNT+DMSO controls. […] FIGS. 4a and 4c confirm that the effect of the TOP1+CHEK combination is primarily mediated through inhibition of CHEK1.
(§2) SW837 and SNU-81 cells (8,000 and 16,000 cells per well, respectively) were reverse transfected with siRNAs of a non-targeting pool as negative control (siNT; Dharmacon, D-001810-10-5), CHEK1 pool (Dharmacon, L-003255-00-0005) or CHEK2 pool (Dharmacon, L-003256-00-0005) using lipofectamine RNAiMax (Thermofisher). After 30 h, a dose range of 0.001-9 µM SN-38 or DMSO were added and viability was measured 72 h later with CTG. Signal was normalised to siNT+DMSO controls. Mean±SD of three independent replicates.

Another data set deals with SW837 cells. The data set is described as above. In kind it is cell-based. Conditions: for IC50: SN-38 added after 30 h, viability 72 h later. The procedure:
as §1, §2

For data set [4], the target named is ataxia telangiectasia and Rad3 related (ATR) kinase (Homo sapiens, UniProt Q13535). Conditions: cited from earlier work.
Data set [5] has as its system ATR-driven phosphorylated CHEK1 (P-CHEK1) phosphorylation. Conditions: cell-free assay; cited from earlier work.
For data set [6] the following is noted: Phase 1 clinical trials; cited from earlier work.

Several values for one entry are separate records, joined by “and”; a condition that tells them apart may be missing. Identical values can stand only once. Like-named read-outs stand apart in the source and are kept apart here.

ataxia telangiectasia and Rad3 related (ATR) kinase, sequence (Q13535 whole entry): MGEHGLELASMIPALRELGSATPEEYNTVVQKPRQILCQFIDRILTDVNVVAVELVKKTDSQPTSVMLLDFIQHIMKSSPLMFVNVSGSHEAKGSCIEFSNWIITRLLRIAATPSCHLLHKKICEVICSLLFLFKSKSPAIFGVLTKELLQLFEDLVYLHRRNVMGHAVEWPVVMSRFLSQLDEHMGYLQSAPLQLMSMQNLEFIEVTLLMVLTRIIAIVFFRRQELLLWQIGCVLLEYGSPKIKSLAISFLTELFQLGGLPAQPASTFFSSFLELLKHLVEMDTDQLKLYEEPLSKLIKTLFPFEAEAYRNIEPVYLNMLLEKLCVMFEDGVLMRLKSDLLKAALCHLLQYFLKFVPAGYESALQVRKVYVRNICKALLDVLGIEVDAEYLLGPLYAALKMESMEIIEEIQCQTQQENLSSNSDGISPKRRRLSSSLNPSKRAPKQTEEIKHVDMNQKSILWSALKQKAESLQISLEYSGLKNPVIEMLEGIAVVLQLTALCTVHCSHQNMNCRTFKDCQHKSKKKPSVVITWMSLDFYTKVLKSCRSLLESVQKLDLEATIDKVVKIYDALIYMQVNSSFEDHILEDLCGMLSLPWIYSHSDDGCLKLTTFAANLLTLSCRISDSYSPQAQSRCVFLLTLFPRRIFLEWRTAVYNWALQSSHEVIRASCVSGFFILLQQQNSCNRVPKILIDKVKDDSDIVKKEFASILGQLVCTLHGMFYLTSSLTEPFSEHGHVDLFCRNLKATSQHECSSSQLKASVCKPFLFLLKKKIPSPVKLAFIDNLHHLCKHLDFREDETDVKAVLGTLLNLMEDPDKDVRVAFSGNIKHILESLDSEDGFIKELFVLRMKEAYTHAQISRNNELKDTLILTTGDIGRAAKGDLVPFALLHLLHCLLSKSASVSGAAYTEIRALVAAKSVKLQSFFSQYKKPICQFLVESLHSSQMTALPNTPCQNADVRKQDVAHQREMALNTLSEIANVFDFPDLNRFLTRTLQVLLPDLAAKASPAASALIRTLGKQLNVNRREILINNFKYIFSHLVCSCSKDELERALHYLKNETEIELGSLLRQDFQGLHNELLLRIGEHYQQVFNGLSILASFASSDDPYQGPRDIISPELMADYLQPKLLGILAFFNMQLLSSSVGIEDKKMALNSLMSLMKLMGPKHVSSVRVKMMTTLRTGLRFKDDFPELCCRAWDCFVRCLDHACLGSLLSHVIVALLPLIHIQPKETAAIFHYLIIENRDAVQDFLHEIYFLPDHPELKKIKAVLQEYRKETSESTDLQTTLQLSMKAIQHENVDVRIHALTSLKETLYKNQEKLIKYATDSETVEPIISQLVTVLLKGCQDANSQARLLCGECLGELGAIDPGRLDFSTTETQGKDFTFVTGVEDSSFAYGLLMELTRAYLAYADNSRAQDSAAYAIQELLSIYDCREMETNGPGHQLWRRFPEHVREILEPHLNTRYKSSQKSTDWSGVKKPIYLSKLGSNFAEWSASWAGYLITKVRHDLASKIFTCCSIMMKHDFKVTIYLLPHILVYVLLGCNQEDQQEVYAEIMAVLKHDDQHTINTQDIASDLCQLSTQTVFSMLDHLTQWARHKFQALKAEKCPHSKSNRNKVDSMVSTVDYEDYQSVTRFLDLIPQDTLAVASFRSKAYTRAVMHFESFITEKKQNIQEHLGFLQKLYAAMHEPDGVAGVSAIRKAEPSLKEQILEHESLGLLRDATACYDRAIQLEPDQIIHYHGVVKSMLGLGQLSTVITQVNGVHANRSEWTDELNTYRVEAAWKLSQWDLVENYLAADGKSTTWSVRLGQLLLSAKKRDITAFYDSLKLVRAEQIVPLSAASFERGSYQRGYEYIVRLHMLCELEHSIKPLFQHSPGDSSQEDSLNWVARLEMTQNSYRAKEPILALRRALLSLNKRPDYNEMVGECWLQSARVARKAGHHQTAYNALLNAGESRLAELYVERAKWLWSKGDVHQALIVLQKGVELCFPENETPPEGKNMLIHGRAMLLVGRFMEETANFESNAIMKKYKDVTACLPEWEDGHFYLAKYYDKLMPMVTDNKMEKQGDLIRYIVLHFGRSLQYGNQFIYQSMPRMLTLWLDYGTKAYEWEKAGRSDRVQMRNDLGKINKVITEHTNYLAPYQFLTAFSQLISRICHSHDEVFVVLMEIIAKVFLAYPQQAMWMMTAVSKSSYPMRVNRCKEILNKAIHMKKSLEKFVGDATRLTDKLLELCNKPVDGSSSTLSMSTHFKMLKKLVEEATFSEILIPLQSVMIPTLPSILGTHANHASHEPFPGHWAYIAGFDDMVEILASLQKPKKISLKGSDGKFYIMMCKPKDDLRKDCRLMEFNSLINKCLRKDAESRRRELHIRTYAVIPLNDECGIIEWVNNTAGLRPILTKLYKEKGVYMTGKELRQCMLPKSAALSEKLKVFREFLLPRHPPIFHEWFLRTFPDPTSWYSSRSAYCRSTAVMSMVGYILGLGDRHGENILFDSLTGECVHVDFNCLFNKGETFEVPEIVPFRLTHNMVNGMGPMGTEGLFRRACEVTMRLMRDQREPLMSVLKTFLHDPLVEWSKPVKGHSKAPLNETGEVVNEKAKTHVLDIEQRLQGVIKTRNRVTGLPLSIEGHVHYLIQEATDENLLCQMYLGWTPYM
ataxia telangiectasia and Rad3 related (ATR) kinase, sequence (Q8WXE1 whole entry partner): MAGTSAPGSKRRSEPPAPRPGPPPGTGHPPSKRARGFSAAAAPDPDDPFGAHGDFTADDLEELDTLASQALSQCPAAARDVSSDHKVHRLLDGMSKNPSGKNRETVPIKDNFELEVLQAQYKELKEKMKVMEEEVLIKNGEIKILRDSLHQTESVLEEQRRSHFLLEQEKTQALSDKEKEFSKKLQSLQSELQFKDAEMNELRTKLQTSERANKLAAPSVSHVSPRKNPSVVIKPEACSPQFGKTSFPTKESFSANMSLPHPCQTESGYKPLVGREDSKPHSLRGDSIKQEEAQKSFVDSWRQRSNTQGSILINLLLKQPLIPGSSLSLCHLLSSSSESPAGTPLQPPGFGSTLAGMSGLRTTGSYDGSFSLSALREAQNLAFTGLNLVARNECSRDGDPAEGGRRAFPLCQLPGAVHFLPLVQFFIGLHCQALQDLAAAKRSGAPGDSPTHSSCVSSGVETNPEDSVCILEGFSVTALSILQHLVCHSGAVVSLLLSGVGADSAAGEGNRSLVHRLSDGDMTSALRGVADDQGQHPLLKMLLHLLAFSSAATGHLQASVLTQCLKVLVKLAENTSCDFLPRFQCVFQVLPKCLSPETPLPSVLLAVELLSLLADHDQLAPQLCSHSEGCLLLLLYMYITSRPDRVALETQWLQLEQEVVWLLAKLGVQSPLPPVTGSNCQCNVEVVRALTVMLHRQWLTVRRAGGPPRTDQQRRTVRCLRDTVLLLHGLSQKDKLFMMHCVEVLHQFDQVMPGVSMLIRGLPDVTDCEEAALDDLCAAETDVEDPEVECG

Take `NC(=O)Nc1cc(-c2cccc(F)c2)sc1C(=O)N[C@H]1CCCNC1` [AZD7762, (S)-5-(3-Fluorophenyl)-N-(piperidin-3-yl)-3-ureidothiophene-2-carboxamide]: in [1] (AZD7762 = Anchor), the “synergy and activity rate in combination with 5-FU (DNA antimetab.)” value worked out at 26%; the “synergy and activity rate in combination with Oxaliplatin (DNA alkyl.)” value is 0%; the “synergy and activity rate in combination with Vinorelbine (Microtub.)” value came out at 0%. Also, in [1] (AZD7762 = Library), the “synergy and activity rate in combination with 5-FU (DNA antimetab.)” value is reported as 28%; the “synergy and activity rate in combination with Oxaliplatin (DNA alkyl.)” value was 2%; the “synergy and activity rate in combination with Vinorelbine (Microtub.)” value stood at 4%.

As for `COc1cc2nc(-c3cc(F)ccc3O)nc(N[C@@H]3CNC[C@H]3C(C)(C)O)c2cc1OC` [CCT241533], the “median ΔEmax (shift in efficacy over Bliss)” value in data set [2] is “did not”.

On to `N[C@@H]1CCCN(c2c(Br)cnc3[nH]cc(NC(=O)C4CC4)c23)C1` [GDC-0575, N-[4-[(3R)-3-amino-1-piperidyl]-5-bromo-1H-pyrrolo[2,3-b]pyridin-3-yl]cyclopropanecarboxamide], for which the IC50 on CHEK1 was 1.2 nM.

In the case of `CCc1c2c(nc3ccc(OC(=O)N4CCC(N5CCCCC5)CC4)cc13)-c1cc3c(c(=O)n1C2)COC(=O)[C@]3(O)CC` [Irinotecan, [(19S)-10,19-diethyl-19-hydroxy-14,18-dioxo-17-oxa-3,13-diazapentacyclo[11.8.0.0^2.11.0^4.9.0^15,20]henicosa-1 (21),2,4(9),5,7,10,15(20)-heptaen-7-yl] 4-(1-piperidyl) piperidine-1-carboxylate], the IC50 is 15800 nM with LoVo cells and 5170 nM in the data set with HT-29 cells.

Take `Cn1cc(-c2cnn3c(N)c(Br)c([C@@H]4CCCNC4)nc23)cn1` [MK-8776, 6-bromo-3-(1-methyl-1H-pyrazol-4-yl)-5-[(3R)-piperidin-3-yl]pyrazolo[1,5-a]pyrimidin-7-amine]: the “synergy (Bliss window and HSA window) in combination with SN-38” value (from here on “synergy (Bliss window and HSA window)”) in data set [3] is “high”.

Regarding `COc1cccc(OCCCN)c1-c1cc(Nc2cnc(C#N)cn2)n[nH]1` [Prexasertib, 5-[[5-[2-(3-aminopropoxy)-6-methoxyphenyl]-1H-pyrazol-3-yl]amino]pyrazine-2-carbonitrile], in [3], the “synergy (Bliss window and HSA window)” value is on record as “high”.

For `C[C@H](CN(C)C)Oc1nc(Nc2cc3cccc(Cl)c3cn2)cnc1C#N` [SAR-020106, 5-(8-chloroisoquinolin-3-ylamino)-3-((R)-1-(dimethylamino)propan-2-yloxy) pyrazine-2-carbonitrile], the “synergy (Bliss window and HSA window)” value in data set [3] was “high”.

With `CCc1c2c(nc3ccc(O)cc13)-c1cc3c(c(=O)n1C2)COC(=O)[C@]3(O)CC` [SN-38, (19S)-10,19-diethyl-7,19-dihydroxy-17-oxa-3,13-diazapentacyclo[11.8.0.0^2.11.0^4.9.0^15,20]henicosa-1(21),2,4(9),5,7,10,15(20)-heptaene-14,18-dione], the half-inhibitory concentration (IC50) in the data set on SNU-81 cells (CHEK1 siRNA pool, read-out: IC50 in SNU-81, siCHEK1) is 84.4 nM and 84 nM; in the data set on SNU-81 cells (CHEK2 siRNA pool, read-out: IC50 in SNU-81, siCHEK2), 715 nM; in the data set with SNU-81 cells (non-targeting siRNA pool, read-out: IC50 in SNU-81, siNT), 611 nM; in the data set on SW837 cells (CHEK1 siRNA pool, read-out: IC50 in SW837, siCHEK1), 0.7 nM; with SW837 cells (CHEK2 siRNA pool, read-out: IC50 in SW837, siCHEK2), 67 nM; in the data set on SW837 cells (Homo sapiens, SW837, CHEK1 siRNA pool, read-out: IC50 in SW837, siCHEK1), 0.69 nM. The IC50 was found to be 66.6 nM in the data set on SW837 cells (Homo sapiens, SW837, CHEK2 siRNA pool, read-out: IC50 in SW837, siCHEK2); 84.4 nM with SW837 cells (Homo sapiens, SW837, non-targeting siRNA pool, read-out: IC50 in SW837, siNT); 84 nM with SW837 cells (non-targeting siRNA pool, read-out: IC50 in SW837, siNT). In addition, the “shift in IC50 of SN-38 on addition of siCHEK1” value in the data set with SNU-81 cells (SNU-81, siCHEK1 vs siNT) was 7.2 fold; in the data set on SW837 cells (SW837, siCHEK1 vs siNT), 120 fold.

In the case of `Nc1nn2cc(F)cnc2c1C(=O)Nc1cncc(F)c1N1CCC(C(=O)N2CCN(C3COC3)CC2)CC1` [VX-803, 2-amino-6-fluoro-N-[5-fluoro-4-[4-[4-(oxetan-3-yl)piperazine-1-carbonyl]-1-piperidyl]-3-pyridyl]pyrazolo[1,5-a]pyrimidine-3-carboxamide], the “Ki ATR kinase” value in [4] was less than 0.15 nM. Moreover, in data set [5], the IC50 is 8 nM.

In the case of `Cc1cnc(NC(=O)Nc2cc(Br)c(C)cc2OC[C@@H]2CNCCO2)cn1` [rabusertib, 1-[5-bromo-4-methyl-2-[[(2S)-morpholin-2-yl]methoxy]phenyl]-3-(5-methylpyrazin-2-yl) urea], the “synergy (Bliss window and HSA window)” value in data set [3] is recorded as “high”. In addition, the safety profile result in data set [6] was “acceptable safety profile”.

The term IC50 denotes the concentration needed to halve the response being measured.
